Data as given in patent US6340676B2, “4-aryl-1-oxa-9-thia-cyclopenta (b) fluorenes” (American Home Products Corporation, priority 1998, dated 2002).

Assays:
diabetic (ob/ob) mice = assay: Blood glucose lowering activity in diabetic (ob/ob) mice; type: in vivo; details: for % Change Glucose from Vehicle: plasma glucose
From the text: The procedures used and results obtained are briefly described below.
The non-insulin dependent diabetic (NIDDM) syndrome can be typically characterizes by obesity, hyperglycemia, abnormal insulin secretion, hyperinsulinemia and insulin resistance.
In each test procedure, mice [Male or female ob/ob (C57 B1/6J) and their lean litermates (ob/+ or +/+, Jackson Laboratories) ages 2 to 5 months (10 to 65 g)] of a similar age were randomized according to body weight into 4 groups of 10 mice. The mice were housed 5 per cage and are maintained on normal rodent chow with water ad libitum. Mice received test compound daily by gavage (suspended in 0.5 ml of 0.5% methyl cellulose); dissolved in the drinking water; or admixed in the diet. The dose of compounds given ranges from 2.5 to 200 mg/kg body weight/day. The dose is calculated based on the fed weekly body weight and is expressed as active moiety. The positive control, ciglitazone ([…], see Chang, A., Wyse, B., Gilchrist, B., Peterson, T. and Diani, A. Diabetes 32: 830-838, 1983.) was given at a dose of 100 mg/kg/day, which produces a significant lowering in plasma glucose. Control mice received vehicle only.
On the morning of Day 4, 7 or 14 two drops of blood (approximately 50 ul) were collected into sodium fluoride containing tubes either from the tail vein or after decapitation. For those studies in which the compound was administered daily by gavage the blood samples were collected two hours after compound administration. The plasma was isolated by centrifugation and the concentration of glucose is measured enzymatically on an Abbott V. P. Analyzer.
For each mouse, the percentage change in plasma glucose on Day 4, 7 or 14 is calculated relative to the mean plasma glucose of the vehicle treated mice. Analysis of variance followed by Dunett's Comparison Test (one-tailed) are used to estimate the significant difference between the plasma glucose values from the control group and the individual compound treated groups (CMS SAS Release 5.18).

Human recombinant PTP1B = biological target: T1, Human recombinant PTP1B (Homo sapiens, UniProt P18031); type: biochemical
T1 construct: made in house
T1 sequence (P18031 1-435): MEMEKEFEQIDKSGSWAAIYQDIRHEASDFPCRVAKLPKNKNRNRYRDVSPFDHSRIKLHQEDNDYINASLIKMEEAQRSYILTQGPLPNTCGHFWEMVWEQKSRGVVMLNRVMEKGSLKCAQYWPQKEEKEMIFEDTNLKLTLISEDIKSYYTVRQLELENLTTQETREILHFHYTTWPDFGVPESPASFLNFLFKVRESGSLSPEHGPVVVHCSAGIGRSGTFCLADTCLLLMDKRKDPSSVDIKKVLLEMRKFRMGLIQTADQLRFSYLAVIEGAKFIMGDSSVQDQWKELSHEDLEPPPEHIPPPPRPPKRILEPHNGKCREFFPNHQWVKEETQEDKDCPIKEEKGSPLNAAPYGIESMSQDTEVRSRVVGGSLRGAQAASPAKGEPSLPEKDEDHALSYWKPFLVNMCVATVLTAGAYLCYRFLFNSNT

[1] = tested on: rat hepatic microsomal PTPases; details: PTPase activity; compounds at 50 μM

CC1(COc2ccc(CC3SC(=O)NC3=O)cc2)CCCCC1 (stereo not shown) [Ciglitazone, 5-(4-(1-methylcyclohexylmethoxy)benzyl)-2,4-dione, reference compound]
% Change Insulin from Vehicle (diabetic (ob/ob) mice; dose 100 mg/Kg): −39% | % Change Glucose from Vehicle (diabetic (ob/ob) mice; dose 100 mg/Kg): −43%

Cc1oc2cc3sc4ccccc4c3c(-c3ccc(O)cc3)c2c1C [Example 5, 4-(2,3-Dimethyl-1-oxa-9-thia-cyclopenta[b]fluoren-4-yl)-phenol]
melting point: 174 to 175 °C

Cc1oc2cc3sc4ccccc4c3c(-c3cc(I)c(O[C@H](C)C(=O)O)c(I)c3)c2c1C [Example 8, (R)-2-[4-(2,3-Dimethyl-1-oxa-9-thia-cyclopenta[b]fluoren-4-yl)-2,6-diiodo-phenoxy]-propionic acid]
IC50 (Human recombinant PTP1B): 0.284 µM | % Change from Control [1]: −58.84%

Cc1oc2cc3sc4ccccc4c3c(-c3cc(I)c(O[C@H](Cc4ccccc4)C(=O)O)c(I)c3)c2c1C [Example 9, (R)-2-[4-(2,3-Dimethyl-1-oxa-9-thia-cyclopenta[b]fluoren-4-yl)-2,6-diiodo-phenoxy]-3-phenyl-propionic acid]
IC50 (Human recombinant PTP1B): 0.074 µM | % Change Insulin from Vehicle (diabetic (ob/ob) mice; dose 10 mg/Kg): −43.43% | % Change Glucose from Vehicle (diabetic (ob/ob) mice; dose 10 mg/Kg, footnote (a): no significant activity (p < 0.05) at this dose): 8.13% | % Change from Control [1]: −72.70%

Ammonium molybdate tetrahydrate [reference compound]
IC50 (Human recombinant PTP1B): 8.7 µM
